Assay results reported in patent US20110028715A1, “NOVEL ADENINE COMPOUND” (priority 2007, published 2011).

What was measured:
OV-HM ovarian carcinoma = assay: Antitumor activity: lung metastasis in OV-HM ovarian carcinoma-bearing mouse; assay type: in vivo, B6C3F1 mouse; conditions: Day 35
Experimental: OV-HM ovarian carcinoma-bearing B6C3F1 mouse was prepared by intradermally inoculating 1×10^6 viable OV-HM cells in back skin. Tumor was surgically removed ten days after the tumor incubation under isoflurane anesthesia. On Day 11, Day 14, Day 17, Day 20, Day 24, Day 28, and Day 32, a test compound was administered via tail vein at the dose of 1 mg/kg. On Day 35, mouse was euthanized, and lung was collected from the mouse. Metastasized tumor nodules in lung was counted, and the frequency of the metastasized mice was calculated in each group.

IFN-α = IFN-α production inducing activity in mice (plasma IFN-α by L929/2-5AS-Luc bioassay); assay type: in vivo, B6C3F1 mice; conditions: 3 hours after 1 mg/kg intravenously via tail vein, mean ± standard deviation (n = 3)
Experimental: A test compound was administered to B6C3F1 mice (Charles River Japan, Inc.) via tail vein at the dose of 1 mg/kg intravenously. After 3 hours, total blood was collected into a sample tube containing heparin. Plasma was prepared from total blood after centrifugation (3,000 rpm, 10 min, at room temperature) and stored at −20° C.
Murine fibroblasts (L929/2-5AS-Luc), which constitutively expressed luciferase gene in which the promoter region for 2′-5′-oligoadenylate synthase was cloned, was seeded into 96-well plate at 4×10^4 cells/well, and cultured for overnight with diluted plasma or mouse IFN-α. After Luclite (Perkin Elmer) was added to the plate, the luciferase activity was measured with TopCount (Perkin Elmer).
The concentration of IFN-α in plasma was calculated by linear regression of logarithmic transformed concentration of mouse IFN-α and the luciferase activity.

Compound: CCOc1nc(N)c2[nH]c(=O)n(Cc3ccc(CN(C)C)cc3)c2n1 [Example 63, 6-Amino-9-(4-dimethylaminomethylbenzyl)-2-ethoxy-7,9-dihydropurin-8-one]
- Frequency of metastasis (OV-HM ovarian carcinoma; metastasized mice per group, lung, 1 mg/kg via tail vein on Days 11, 14, 17, 20, 24, 28, 32): 0/6
- Number of tumor (OV-HM ovarian carcinoma; metastasized tumor nodules in lung, 1 mg/kg via tail vein, **p < 0.01 vs vehicle group (Wilcoxon)): 0.0**
- Mouse IFN-α (IFN-α): 25.4 ± 13.9 IU/mL
